Measured values reported in BindingDB's records for doi:10.1016/s0014-2999(97)01510-0 (Hospital Saint-Antoine, 1998).

Biological target: T1, 5'-nucleotidase (Rattus norvegicus, UniProt P21588)
T1 sequence (P21588 whole entry): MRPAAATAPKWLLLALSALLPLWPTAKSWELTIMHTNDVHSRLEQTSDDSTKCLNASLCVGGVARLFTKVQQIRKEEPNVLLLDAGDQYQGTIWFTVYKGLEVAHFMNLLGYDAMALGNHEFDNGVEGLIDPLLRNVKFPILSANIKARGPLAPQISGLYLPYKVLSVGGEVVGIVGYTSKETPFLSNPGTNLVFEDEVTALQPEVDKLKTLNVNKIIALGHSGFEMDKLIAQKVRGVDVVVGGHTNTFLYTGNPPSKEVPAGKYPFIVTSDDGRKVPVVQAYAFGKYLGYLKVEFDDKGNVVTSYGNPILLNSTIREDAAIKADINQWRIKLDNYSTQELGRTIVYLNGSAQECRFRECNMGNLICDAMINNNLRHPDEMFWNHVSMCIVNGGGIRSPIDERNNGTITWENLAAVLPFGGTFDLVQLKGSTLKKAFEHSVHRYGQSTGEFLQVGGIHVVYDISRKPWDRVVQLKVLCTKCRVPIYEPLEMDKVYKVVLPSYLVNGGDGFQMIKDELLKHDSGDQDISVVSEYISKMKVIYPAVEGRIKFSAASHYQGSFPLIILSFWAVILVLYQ

Ki: 124 nM
SMILES: COc1cccc(OC)c1-c1cc(C(=O)NC2(C(=O)O)C3CC4CC(C3)CC2C4)nn1-c1ccnc2cc(Cl)ccc12 (stereo unspecified)
